Key:
[1] = molecular target: HasA (Pseudomonas aeruginosa, UniProt G3XD33); test: Kd determination by fluorescence quenching of apo-HasAp; details: read-out: HasA Kd; apo-HasAp 1 μM, 20 mM sodium phosphate pH 7.4, 25 °C, one-site binding fit
Description: Wild-type, full-length HasAp was prepared from freshly transformed Escherichia coli BL21(DE3) competent cells as previously described in 4 L of M9 media. Cell pellets were resuspended and lysed with an LM-20 microfluidizer at 18,000 psi. Lysate was clarified by centrifugation and applied to a Q-Sepharose column. HasAp was eluted over a gradient from 20 to 600 mM NaCl in 20 mM Tris-HCl (pH 7.5), and desired fractions determined by SDS-PAGE were pooled. Apo-HasAp was further purified on a Butyl Sepharose Fast Flow column equilibrated with 50 mM sodium phosphate buffer with 0.7 M ammonium sulfate (pH 7.0). Holo-HasAp and other proteins eluted within 2–3 bed volumes of 50 mM sodium phosphate containing 0.5 M ammonium sulfate. Apo-HasAp was then eluted with a linear gradient of sodium phosphate buffer (50–20 mM) containing ammonium sulfate (0.5–0 M). Fractions were analyzed again by SDS-PAGE, and the apo-HasAp was pooled, concentrated (Amicon stirred cell with Ultracel 10 kDa filter), and exchanged into 20 mM sodium phosphate buffer.
Binding affinities were determined using a BioTek Synergy H1 microplate reader in a black 96-well plate. Compounds were solvated in H2O in serial dilutions (100–0.39 μM). One micromolar solution of apo-HasAp 20 mM sodium phosphate buffer (pH 7.4, 25 °C) was titrated into the ligand of interest. Emission spectra were recorded (300–500 nm) after excitation at 280 nm. The decrease in maximum emission was plotted against the ligand concentration (accounting for dilution) and fit to one-site binding using GraphPad Prism v10.

[2] = RBC/PL partitioning equilibrium in whole blood; details: for ICP-MS calculated KRBC/PL / LC-MS/MS calculated KRBC/PL: sodium heparin whole blood, 6 selectivity lots; for KRBC/PL: K2EDTA whole blood
Description: The mixtures were digested at 80 °C for 4 hours and further diluted to a concentration of 6% nitric acid. Gallium (Ga^71) in whole blood, PL, and RBC samples were quantified using an Agilent 7700x ICP-MS instrument (Agilent Technologies). Metal levels were detected using an Octopole Reaction System in He mode. Other ICP-MS parameters include an radio frequency power of 1500 W, on octupole radio frequency of 190 V, an octapole bias of –18 V, a helium gas flow of 4.3 mL/min, and an argon flow of 0.99 L/min. Samples were loaded through a 7700X peristaltic (with a speed of 0.1 rps) and a MicroMist nebulizer. A standard calibration curve was used to derive metal concentrations. The calibration standards from 0–250 ppb were prepared in 6% nitric acid using atomic absorption standards (Sigma). Data analysis and extraction were performed using Agilent’s MassHunter software version 5.1, specifically version D.01.01.
All LC-MS/MS grade solvents were purchased from ThermoFisher. Ammonium bicarbonate was purchased from Sigma Aldrich. Analysis was performed on a Waters I-Class ultra-performance liquid chromatography system connected with a Waters Xevo TQ-XS mass spectrometer. Ten millimolar ammonium bicarbonate, pH 9.4 was used for mobile phase A, and 100% methanol was used for mobile phase B. The column flow rate was set at 0.400 mL/min. Chromatographic separation was performed with a BEH C18 (2.1 × 50 mm, 1.7 μm) column (Waters). […] The total run time was 4 minutes. The column temperature was set to 60 °C, and the autosampler temperature was set to 15 °C. Washing parameters were 800 μL of weak needle wash (acetonitrile [ACN]:Water/50:50) and 1000 μL of strong needle wash (methanol:ACN:2-propanol:formic acid/30:30:40:0.5) after every injection. Transitions used to monitor all drugs in the study are shown in Supplemental Table 1.
Whole blood (either potassium EDTA [K2EDTA] or sodium heparin) was preincubated at 37 °C for 30 minutes before spiking with the analyte. GaSal-5 was made at a stock concentration of 100 μg/mL in water and then spiked at a high concentration (1 μg/mL) and low concentration (100 ng/mL) to determine whether equilibrium was concentration dependent. Samples were then aliquoted and stored in a water bath at 37 °C for 1, 2, 3, 4, and 8 hours or harvested immediately. PL was harvested from samples by centrifuging at 3000 rpm at 4 °C for 10 minutes. PL was transferred to a new tube and considered the PL fraction, whereas the rest of the matrix was considered the RBC fraction. Samples were then either analyzed by LC-MS/MS or ICP-MS. […] For selectivity lot analysis, whole blood from 3 male and 3 female donors were incubated for 2 hours and then analyzed with LC-MS/MS and ICP-MS at a single concentration of 1 μg/mL. Data are presented as average ± SEM, n = 3 per sample, per concentration. Significance was determined by using a paired t test for ICP-MS and LC-MS/MS data (the same sample, different method) or a 2-tailed Student’s t test for different anticoagulants.

[3] = 0.1 μg/mL, pooled K2EDTA whole blood, 2 hours, LC-MS/MS (ICP-MS for Ga^3+)
[4] = 0.1 μg/mL, pooled sodium heparin whole blood, 2 hours, LC-MS/MS (ICP-MS for Ga^3+)
[5] = 1 μg/mL, pooled K2EDTA whole blood, 2 hours, LC-MS/MS (ICP-MS for Ga^3+)
[6] = 1 μg/mL, pooled sodium heparin whole blood, 2 hours, LC-MS/MS (ICP-MS for Ga^3+)
[7] = 1 μg/mL, selectivity lots n = 6, LC-MS/MS
[8] = 1 μg/mL, selectivity lots n = 6, LC-MS/MS (also in Table 4)

Chain of HasA (G3XD33 entry or part of it): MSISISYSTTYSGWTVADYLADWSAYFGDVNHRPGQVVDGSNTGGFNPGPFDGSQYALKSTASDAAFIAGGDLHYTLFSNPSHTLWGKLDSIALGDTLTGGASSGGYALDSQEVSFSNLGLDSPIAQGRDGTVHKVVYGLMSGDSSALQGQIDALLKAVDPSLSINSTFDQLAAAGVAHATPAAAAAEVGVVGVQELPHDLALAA

Compound: Oc1ccccc1/C=N/c1ccccc1/N=C/c1ccccc1O.[Ga+3] [GaSal, gallium salophen]
- Kd [1]: 0.8 ± 0.1 µM
- K2EDTA KRBC/PL [2, 3]: 0.22 ± 0.02
- Heparin KRBC/PL [2, 4]: 0.61 ± 0.42
- K2EDTA KRBC/PL [2, 5]: 0.26 ± 0.03
- Heparin KRBC/PL [2, 6]: 0.57 ± 0.19
- K2EDTA KRBC/PL [2, 7]: 0.58 ± 0.02
- Heparin KRBC/PL [2, 8]: 0.45 ± 0.03
- ICP-MS calculated KRBC/PL ([2]; 1 μg/mL, 2 hours): 0.89 ± 0.04
- LC-MS/MS calculated KRBC/PL ([2]; 1 μg/mL, 2 hours): 0.45 ± 0.03

Compound: Oc1cc(OCCN2CCOCC2)ccc1C=Nc1ccccc1N=Cc1ccc(OCCN2CCOCC2)cc1O.[Ga+3] [GaSal-3]
- Kd [1]: 1.5 ± 0.3 µM
- K2EDTA KRBC/PL [2, 3]: 0.28 ± 0.08
- Heparin KRBC/PL [2, 4]: 1.08 ± 0.28
- K2EDTA KRBC/PL [2, 5]: 0.28 ± 0.04
- Heparin KRBC/PL [2, 6]: 1.03 ± 0.24

Compound: O=C(O)CCOc1ccc(C=Nc2ccccc2N=Cc2ccc(OCCC(=O)O)cc2O)c(O)c1.[Ga+3] [GaSal-4]
- Kd [1]: 1.1 ± 0.1 µM
- K2EDTA KRBC/PL [2, 3]: 2288 ± 94
- Heparin KRBC/PL [2, 4]: 3422 ± 435
- K2EDTA KRBC/PL [2, 5]: 9220 ± 484
- Heparin KRBC/PL [2, 6]: 8098 ± 1102

Compound: COCCOCCOc1ccc(C=Nc2ccccc2N=Cc2ccc(OCCOCCOC)cc2O)c(O)c1.[Ga+3] [GaSal-5]
- Kd [1]: 2.5 ± 1.2 µM
- K2EDTA KRBC/PL [2, 3]: 0.63 ± 0.36
- Heparin KRBC/PL [2, 4]: 1.91 ± 0.57
- Heparin KRBC/PL [2, 6]: 1.34 ± 0.17
- K2EDTA KRBC/PL [2, 7]: 0.16 ± 0.03
- Heparin KRBC/PL [2, 8]: 0.56 ± 0.03
- ICP-MS calculated KRBC/PL ([2]; 1 μg/mL, 2 hours): 0.36 ± 0.03
- LC-MS/MS calculated KRBC/PL ([2]; 1 μg/mL, 2 hours): 0.56 ± 0.03
- KRBC/PL ([2]; 2 hours, ICP-MS, HQC (1 μg/mL)): 0.572 ± 0.008
- KRBC/PL ([2]; 2 hours, ICP-MS, LQC (100 ng/mL)): 0.632 ± 0.080
- KRBC/PL ([2]; 2 hours, LC-MS/MS, HQC (1 μg/mL)): 0.043 ± 0.017
- KRBC/PL ([2]; 2 hours, LC-MS/MS, LQC (100 ng/mL)): 0.070 ± 0.007

Compound: COCCOc1ccc(/C=N/c2ccccc2/N=C/c2ccc(OCCOC)cc2O)c(O)c1.[Ga+3] [GaSal-13]
- Kd [1]: 0.96 ± 0.14 µM
- K2EDTA KRBC/PL [2, 3]: 0.55 ± 0.35
- Heparin KRBC/PL [2, 4]: 0.47 ± 0.22
- K2EDTA KRBC/PL [2, 5]: 0.08 ± 0.04
- Heparin KRBC/PL [2, 6]: 0.59 ± 0.18
- ICP-MS calculated KRBC/PL ([2]; 1 μg/mL, 2 hours): 0.48 ± 0.04
- LC-MS/MS calculated KRBC/PL ([2]; 1 μg/mL, 2 hours): 0.42 ± 0.03

Compound: COCCOc1ccc(/C=N/c2ccccc2N=C(C)c2ccccc2O)c(O)c1.[Ga+3] [GaSal-14]
- Kd [1]: 2.84 ± 0.12 µM
- K2EDTA KRBC/PL [2, 3]: 0.69 ± 0.10
- Heparin KRBC/PL [2, 4]: 0.55 ± 0.07
- K2EDTA KRBC/PL [2, 5]: 1.65 ± 0.18
- Heparin KRBC/PL [2, 6]: 1.86 ± 0.36
- K2EDTA KRBC/PL [2, 7]: 0.08 ± 0.01
- Heparin KRBC/PL [2, 8]: 0.33 ± 0.04
- ICP-MS calculated KRBC/PL ([2]; 1 μg/mL, 2 hours): 0.34 ± 0.02
- LC-MS/MS calculated KRBC/PL ([2]; 1 μg/mL, 2 hours): 0.33 ± 0.04

— paper PMC12264554, “Application of preclinical absorption, distribution, metabolism, elimination in vitro techniques for the characterization and compound library optimization of novel antibiotic gallium salophen” (Drug Metabolism and Disposition, 2025)
